Data from patent US9717715B2, “Method of combination therapy using an anti-C-Met antibody” (Samsung Electronics Co., Ltd., priority 2013, dated 2017).

Columns and labels:
[1] = tested on: breast cancer cell line BT-474; assay: Combination cell viability CTG assay, BT-474; format: cell-based; details: BT-474, 72 hours
Description: (§1) Cell proliferation in response to antibody treatment in vitro was assessed by a CTG (Promega) assay according to manufacturer's instructions. EBC1, HT-29, BT-474, HCC1806, HCC1954 and MKN45 cells were respectively plated at a density of 5×10^3 cells per well in FBS 10% (v/v) RPMI 1640 medium (Gibco) onto a 96-well plate (BD). The HT-29 (HTB-38), BT-474 (HTB-20), HCC1806 (CRL-2335) and HCC1954 (CRL-2338) cell lines were all purchased from ATCC. MKN45 (JCRB0254) and EBC1 (JCRB0820) cell lines were purchased from the Health Science Research Resource Bank. After 24 hours incubation, the c-Met targeting antibody huAbF46-H4-A1 (IgG2 Fc) was added alone or in combination with another drug (lapatinib, regorafenib or vemurafenib) diluted in 10% FBS (v/v) RPMI medium. Lapatinib, regorafenib and vemurafenib were purchased from Selleck Chemicals.
For the combination treatment of each experiment, IC20 concentration of one drug (drug A) and differing amounts of the other drug (drug B) were treated to see if the efficacy of drug B is improved by combi-treatment with drug A in a dose-dependent manner (see FIGS. 16-22). After 72 hours incubation, 100 μL of the CTG reagent (Promega) was added to each well followed by incubation at 37° C. for 30 minutes. The luminescence was measured using an Envision Multilabel Plate Reader (Perkin Elmer).

[2] = tested on: breast cancer cell line HCC1806; assay: Combination cell viability CTG assay, HCC1806; format: cell-based; details: HCC1806, 72 hours, FIG. 17
Description: as §1
(§2) After 72 hours incubation, 100 μL of the CTG reagent (Promega) was added to each well followed by incubation at 37° C. for 30 minutes. The luminescence was measured using an Envision Multilabel Plate Reader (Perkin Elmer).

[3] = tested on: colorectal cancer cell line HT29; assay: Combination cell viability CTG assay, HT29; format: cell-based; details: HT29, 72 hours, FIG. 19
Description: as §1, §2

[4] = tested on: breast cancer cell line HCC1954; assay: Combination cell viability CTG assay, HCC1954; format: cell-based; details: HCC1954, 72 hours, FIG. 18
Description: as §1, §2

[5] = tested on: human gastric cancer MKN45 cells; assay: MKN45 orthotopic xenograft (metastasis); format: in vivo, mouse; details: 5-FU group, dose not given
From the text: For the MKN45 orthotopic xenograft experiment, human gastric cancer MKN45 cells (Japanese Cancer Research Bank, JCRB, Tokyo, Japan) were inoculated into donor BALB/C nude mice. When the tumor size reached the size of 600-800 mm3, the donor mice were euthanized, and the tumor was excised through sterile surgical procedure. The tumors were cut into fragments the size of 1×1×1 mm and implanted into the wall of great gastric curvature of recipient mice through sterile surgery under isoflurane anesthesia. 7 days after the surgery, recipient mice with orthotopic tumors were randomized into groups according to body weight and dosing was commenced. huAbF46-H4-A1 (IgG2 Fc) was injected into a vein once a week for 9 weeks. At the end of the in vivo study, orthotopic tumor weight was recorded and metastasis to the other organ was checked by macroscopic examination.

[6] = tested on: MHCC97H (human liver cancer cell line); assay: MHCC97H xenograft model; format: in vivo, mouse; details: 30 mg/kg p.o. q.d. x 4 weeks
Description: The antitumor activity of huAbF46-H4-A1 (IgG2 Fc) was evaluated in a BALB/C nude mouse MHCC97H (human liver cancer cell line) xenograft model (referring to Example 16.2). Approximately 3 million MHCC97H cells in 100 μL of serum-free media were injected via s.c. to each of the 140 mice under anesthesia by 1-2% isoflurane. Ten days after subcutaneous inoculation with MHCC97H tumor cells, dosing commenced in the following treatment groups: 0 (PBS vehicle), 0.2, 1, 5 or 10 mg/kg huAbF46-H4-A1 (IgG2 Fc) i.v., q.w.×4 weeks; 30 mg/kg sorafenib p.o., q.d.×4 weeks (positive control). Each group consisted of 15 mice. Tumor volumes and body weights were measured two to three times a week for total study period about 4 weeks. The tumor volume (V) was calculated as follows: V (mm^3)={long axis length (mm)×(short axis length (mm))^2}/2.

CS(=O)(=O)CCNCc1ccc(-c2ccc3ncnc(Nc4ccc(OCc5cccc(F)c5)c(Cl)c4)c3c2)o1 [lapatinib]
anti-tumor efficacy (cell viability) when co-treated with huAbF46-H4-A1 (IgG2 Fc) ([1]; FIG. 16): significantly improved
anti-tumor efficacy (cell viability) when co-treated with huAbF46-H4-A1 (IgG2 Fc) [2]: significantly improved
anti-tumor efficacy (cell viability) when co-treated with huAbF46-H4-A1 (IgG2 Fc) [3]: significantly improved
anti-tumor efficacy (cell viability) when co-treated with huAbF46-H4-A1 (IgG2 Fc) [4]: significantly improved

O=c1[nH]cc(F)c(=O)[nH]1 [Antibody 5-FU, 5-FU, reference compound]
Number of metastasis lesion [5]: 0

CNC(=O)c1cc(Oc2ccc(NC(=O)Nc3ccc(Cl)c(C(F)(F)F)c3)cc2)ccn1 [sorafenib, reference compound]
tumor growth [6]: significant inhibition of MHCC97H tumor growth

CNC(=O)c1cc(Oc2ccc(NC(=O)Nc3ccc(Cl)c(C(F)(F)F)c3)c(F)c2)ccn1 [regorafenib]
anti-tumor efficacy (cell viability) when co-treated with huAbF46-H4-A1 (IgG2 Fc) ([1]; FIG. 20): significantly improved
